Laboratory results taken from patent publication US10973832B2, “Muscarinic M1 receptor agonists” (Heptares Therapeutics Limited, priority 2011, dated 2021).

Tests used:
[1] = molecular target: T1, human muscarinic M1 receptor (Homo sapiens, UniProt P11229); assay: Phospho-ERK1/2 assay, muscarinic M1; type: cell-based; conditions: for Emax: CHO, read-out: % Emax cf. ACh (M1)
T1 sequence (P11229 1-460): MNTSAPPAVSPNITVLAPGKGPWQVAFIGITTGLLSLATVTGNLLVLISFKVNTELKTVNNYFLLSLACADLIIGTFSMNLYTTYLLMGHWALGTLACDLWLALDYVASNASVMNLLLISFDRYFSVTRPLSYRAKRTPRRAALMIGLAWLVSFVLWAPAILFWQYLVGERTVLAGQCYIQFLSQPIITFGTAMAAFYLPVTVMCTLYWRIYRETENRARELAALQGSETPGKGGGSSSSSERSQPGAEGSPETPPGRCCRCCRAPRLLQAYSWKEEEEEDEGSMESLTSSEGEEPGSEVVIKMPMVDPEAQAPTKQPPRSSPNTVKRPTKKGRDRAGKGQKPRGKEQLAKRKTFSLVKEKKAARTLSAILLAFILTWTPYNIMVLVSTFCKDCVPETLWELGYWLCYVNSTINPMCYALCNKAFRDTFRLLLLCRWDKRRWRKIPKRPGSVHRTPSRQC
Procedure, shortened: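 The assay used ERK1/2 phosphorylation as a common downstream read-out of Gq/11 and Gi/o receptor activation. CHO cells expressing each human receptor were exposed to agonist for five minutes at 37 °C after overnight serum starvation. Potency (pEC50) and maximal effect (Emax) came from the AlphaScreen signal.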

[2] = test system: scopolamine-induced amnesia; assay: Passive avoidance; type: in vivo; conditions: for reversal of scopolamine-induced amnesia: dose range 3, 10, 30 mg/kg po, scopolamine 1 mg/kg i.p.; for significance of reversal of scopolamine-induced amnesia: p<0.05 Bonferroni post hoc test
Experimental: (§1) FIGS. 1-4 show the efficacy of the compounds of the invention. FIGS. 1-3 relate to the passive avoidance assay described in part B. Studies were carried out as described previously by Foley et al., (2004) Neuropsychopharmacology. In the passive avoidance task scopolamine administration (1 mg/kg, i.p.) at 6 hours following training rendered animals amnesic of the paradigm. A dose range of 3, 10, and 30 mg/kg (po) free base, administered 90 minutes prior to the training period via oral gavage, was examined.
as §1, with “Studies” for “FIGS. 1-4 show the efficacy of the compounds of the invention. FIGS. 1-3 relate to the passive avoidance assay described in part B. Studies”

[3] = test system: Rats; assay: Irwin profile; type: in vivo
Experimental: The method, which detects the principal effects of a test substance on behaviour and physiological function, follows that described by Irwin (1968) Psychopharmacologia. Cholinergic side effects are potentially visible in the behavioural readout of the Irwin assay, and an absence of these side effects can be taken as an indication that agonism of the M2 and M3 receptors is not significant in vivo.
Rats are administered the test substance or its vehicle, and are observed in simultaneous comparison with a control group. Behavioural modifications, physiological and neurotoxicity symptoms, rectal temperature and pupil diameter are recorded according to a standardized observation grid derived from that of Irwin. The grid contains the following items: death, convulsions, tremor, Straub tail, altered activity, jumping, abnormal gait (rolling, tiptoe), motor incoordination, altered abdominal muscle tone, loss of grasping, akinesia, catalepsy, loss of traction, loss of balance, fore-paw treading, writhing, piloerection, stereotypies (sniffing, chewing, head movements), head-twitches, scratching, altered respiration, aggression, altered fear/startle, altered reactivity to touch, ptosis, exophthalmia, loss of righting reflex, loss of corneal reflex, analgesia, defecation/diarrhea, salivation, lacrimation, rectal temperature (hypothermia/hyperthermia) and pupil diameter (myosis/mydriasis). […]

[4] = test system: CA1 region of rat hippocampal slices; assay: CA1 cell firing (fEPSP amplitude); type: cell-based; conditions: five point cumulative concentration-response, 6 slices averaged
Experimental: Rat hippocampal slices of […] thickness were cut in chilled (<4° C.) artificial cerebrospinal fluid (aCSF, composition in mM: NaCl 127, KCl 1.6, KH2PO4 1.24, MgSO4 1.3, CaCl2 2.4, NaHCO3 26 and D-glucose 10) using vibratome. Slices were maintained in oxygenated (95% O2/5% CO2) aCSF at room temperature for at least 1 hr prior to electrophysiological recording, after which they were transferred to an interface chamber and constantly perfused with warmed (30° C.) oxygenated aCSF at a flow rate of 1.5-3 ml·min−1. Schaffer collaterals were then stimulated (1-20 V, 0.1 ms pulse width, 0.033 Hz) with a concentric bipolar electrode to evoke field excitatory post synaptic potentials (fEPSPs) recorded from the stratum radiatum of the CA1 region.
Experiments were performed to examine the effect of compound compared to […] carbachol (CCh), on the amplitude of fEPSPs in the CA1 region of rat hippocampal slices. 1 μM CCh was initially applied until steady-state, followed by wash, before performing a five point cumulative concentration-response to compound. Each compound was tested on 6 slices and results averaged. Drug preparation; compound was dissolved in 100% DMSO at a stock concentration of 30 mM, and diluted according to requirements, carbamoylcholine chloride (CCh) was purchased from Sigma (Cat #C4382) and dissolved at a stock concentration of 1 mM in ddH2O.

SMILES | EC50 [1] | Emax [1] | reversal of scopolamine-induced amnesia ([2]; 90 minutes prior to training) | ED50 ([2]; po, free base, 90 minutes prior to training, scopolamine 1 mg/kg i.p. 6 hours after training, read-out: approximate ED50, reversal of scopolamine-induced amnesia) | Irwin observation grid, effects on any parameter vs vehicle ([3]; 3, 10, 30 and 75 mg/kg po, 15, 30, 60, 120, 180 minutes and 24 hours) | EC50 [4] | effect compared with donepezil (0.1 mg/kg, i.p.) positive control ([2]; 10 mg/kg, FIG. 3) | effect compared with donepezil (0.1 mg/kg, i.p.) positive control ([2]; 10 and 30 mg/kg, FIG. 2) | significance of reversal of scopolamine-induced amnesia ([2]; acute 10 mg/kg po, FIG. 3) | significance of reversal of scopolamine-induced amnesia ([2]; acute 10 and 30 mg/kg, FIG. 2) | Irwin observation grid, effects on any parameter vs vehicle ([3]; 5, 10, 20 and 40 mg/kg, 15, 30, 60, 120 and 180 minutes)
CCOC(=O)N1CCCC(N2CCC(C(=O)NC3(C)CCC3)CC2)CC1 (stereo not drawn) [Example 27, ethyl 4-(4-((1-methylcyclobutyl)carbamoyl)piperidin-1-yl)azepane-1-carboxylate] | 45.7 nM | 117% | reverse scopolamine-induced amnesia of the paradigm in a dose-dependent manner | ~10 mg/kg | No effects on any parameter were observed at any time point | 1210 nM | – | – | – | – | –
CCOC(=O)N1CCC[C@H](N2CCC(C(=O)NC3(C)CCC3)CC2)CC1 [Example 65, ethyl (4S)-4-{4-[(1-methylcyclobutyl)carbamoyl]piperidin-1-yl)azepane-1-carbondate] | 31.6 nM | 104% | reverse scopolamine-induced amnesia of the paradigm in a dose-dependent manner | – | – | 2050 nM | not significantly different to that produced by the cholinesterase inhibitor donepezil | not significantly different to that produced by the cholinesterase inhibitor donepezil | significant effects | significant effects | No significant effects on any parameter were observed
